Assays:
[1] = tested on: panel of 55 breast cancer cell lines; test: Cell growth inhibition assay (Cell Titer Glo, 72 h, 9 doses; GI50, TGI, LC50); assay type: cell-based, human; conditions: value is the negative log10 of mol/L
[2] = tested on: luminal, basal, claudin-low and ERBB2AMP breast cancer cell lines; test: Associations of clinically relevant subtypes and response (non-parametric ANOVA or t-test on GI50 ranks); assay type: cell-based, human
Summary of the method: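 Significance was set at FDR p<0.20 after combining p-values across three test sets. Subtype–response associations came from rank-based non-parametric ANOVA or t-tests on GI50. For three-class comparisons, post-hoc tests of each group against the rest identified the most sensitive group, with FDR correction.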

Question: For `CCNCCCCNCCCCNCCCCNCCCCNCC=CCNCCCCNCCCCNCCCCNCCCCNCC.Cl.Cl.Cl.Cl.Cl.Cl.Cl.Cl.Cl.Cl` (stereo in doubt) [CGC-11144], which GI50 ([1]; 600MPE cell line, censored GI50 values) is on record?
Answer: The GI50 was 6.49.

Question: What about the GI50 ([1]; AU565 cell line, censored GI50 values) of the same molecule?
Answer: The GI50 was 6.31.

Question: And the GI50 ([1]; BT20 cell line, censored GI50 values)?
Answer: The GI50 was 6.52.

Question: What about the GI50 ([1]; BT474 cell line, censored GI50 values) of the same molecule?
Answer: The GI50 was 6.02.

Question: And the GI50 ([1]; BT483 cell line, censored GI50 values)?
Answer: Its GI50 is 6.25.

Question: What about the GI50 ([1]; BT549 cell line, censored GI50 values) of the same molecule?
Answer: The GI50 was 6.65.

Question: And the GI50 ([1]; CAMA1 cell line, censored GI50 values)?
Answer: Its GI50 is 6.40.

Question: What about the GI50 ([1]; HCC38 cell line, censored GI50 values) of the same molecule?
Answer: Its GI50 is 6.81.

Question: And the GI50 ([1]; HCC70 cell line, censored GI50 values)?
Answer: The GI50 was 6.55.

Question: And the GI50 ([1]; HCC202 cell line, censored GI50 values)?
Answer: Its GI50 is 6.26.

Question: And the GI50 ([1]; HCC1143 cell line, censored GI50 values)?
Answer: Its GI50 is 6.88.

Question: What about the GI50 ([1]; HCC1187 cell line, censored GI50 values) of the same molecule?
Answer: The GI50 was 6.02.

Question: What about the GI50 ([1]; HCC1395 cell line, censored GI50 values) of the same molecule?
Answer: Its GI50 is 6.20.

Question: And the GI50 ([1]; HCC1419 cell line, censored GI50 values)?
Answer: Its GI50 is 6.30.

Question: What about the GI50 ([1]; HCC1428 cell line, censored GI50 values) of the same molecule?
Answer: Its GI50 is 6.33.

Question: What about the GI50 ([1]; HCC1500 cell line, censored GI50 values) of the same molecule?
Answer: Its GI50 is 6.65.

Question: What about the GI50 ([1]; HCC1806 cell line, censored GI50 values) of the same molecule?
Answer: The GI50 was 6.71.

Question: What about the GI50 ([1]; HCC1937 cell line, censored GI50 values) of the same molecule?
Answer: The GI50 was 6.76.

Question: And the GI50 ([1]; HCC1954 cell line, censored GI50 values)?
Answer: Its GI50 is 6.56.

Question: What about the GI50 ([1]; HCC2185 cell line, censored GI50 values) of the same molecule?
Answer: The GI50 was 6.60.

Question: And the GI50 ([1]; HCC3153 cell line, censored GI50 values)?
Answer: The GI50 was 6.72.

Question: What about the GI50 ([1]; LY2 cell line, censored GI50 values) of the same molecule?
Answer: Its GI50 is 5.18.

Question: And the GI50 ([1]; MCF7 cell line, censored GI50 values)?
Answer: The GI50 was 6.33.

Question: What about the GI50 ([1]; MDAMB134VI cell line, censored GI50 values) of the same molecule?
Answer: Its GI50 is 6.38.

Question: And the GI50 ([1]; MDAMB157 cell line, censored GI50 values)?
Answer: The GI50 was 6.96.

Question: And the GI50 ([1]; MDAMB175VII cell line, censored GI50 values)?
Answer: Its GI50 is 6.75.

Question: And the GI50 ([1]; MDAMB231 cell line, censored GI50 values)?
Answer: Its GI50 is 4.66.

Question: What about the GI50 ([1]; MDAMB361 cell line, censored GI50 values) of the same molecule?
Answer: Its GI50 is 5.78.

Question: What about the GI50 ([1]; MDAMB415 cell line, censored GI50 values) of the same molecule?
Answer: The GI50 was 6.78.

Question: What about the GI50 ([1]; MDAMB436 cell line, censored GI50 values) of the same molecule?
Answer: The GI50 was 6.06.

Question: What about the GI50 ([1]; MDAMB453 cell line, censored GI50 values) of the same molecule?
Answer: The GI50 was 6.28.

Question: What about the GI50 ([1]; MDAMB468 cell line, censored GI50 values) of the same molecule?
Answer: The GI50 was 6.17.

Question: What about the GI50 ([1]; SKBR3 cell line, censored GI50 values) of the same molecule?
Answer: The GI50 was 5.30.

Question: And the GI50 ([1]; SUM149PT cell line, censored GI50 values)?
Answer: Its GI50 is 6.53.

Question: And the GI50 ([1]; SUM159PT cell line, censored GI50 values)?
Answer: The GI50 was 6.60.

Question: And the GI50 ([1]; SUM185PE cell line, censored GI50 values)?
Answer: Its GI50 is 6.68.

Question: And the GI50 ([1]; SUM225CWN cell line, censored GI50 values)?
Answer: Its GI50 is 5.45.

Question: What about the GI50 ([1]; SUM1315MO2 cell line, censored GI50 values) of the same molecule?
Answer: The GI50 was 5.69.

Question: And the GI50 ([1]; cell line 600MPE)?
Answer: The GI50 was 6.49.

Question: And the GI50 ([1]; cell line AU565)?
Answer: Its GI50 is 6.31.

Question: And the GI50 ([1]; cell line BT20)?
Answer: The GI50 was 6.52.

Question: What about the GI50 ([1]; cell line BT474) of the same molecule?
Answer: The GI50 was 6.02.

Question: And the GI50 ([1]; cell line BT483)?
Answer: Its GI50 is 6.25.

Question: And the GI50 ([1]; cell line BT549)?
Answer: Its GI50 is 6.65.

Question: And the GI50 ([1]; cell line CAMA1)?
Answer: The GI50 was 6.40.

Question: And the GI50 ([1]; cell line HCC38)?
Answer: The GI50 was 6.81.

Question: What about the GI50 ([1]; cell line HCC70) of the same molecule?
Answer: Its GI50 is 6.55.

Question: And the GI50 ([1]; cell line HCC202)?
Answer: Its GI50 is 6.26.

Question: And the GI50 ([1]; cell line HCC1143)?
Answer: Its GI50 is 6.88.

Question: What about the GI50 ([1]; cell line HCC1187) of the same molecule?
Answer: Its GI50 is 6.02.

Question: And the GI50 ([1]; cell line HCC1395)?
Answer: Its GI50 is 6.20.

Question: What about the GI50 ([1]; cell line HCC1419) of the same molecule?
Answer: Its GI50 is 6.30.

Question: And the GI50 ([1]; cell line HCC1428)?
Answer: Its GI50 is 6.33.

Question: What about the GI50 ([1]; cell line HCC1500) of the same molecule?
Answer: Its GI50 is 6.65.

Question: What about the GI50 ([1]; cell line HCC1806) of the same molecule?
Answer: Its GI50 is 6.71.

Question: What about the GI50 ([1]; cell line HCC1937) of the same molecule?
Answer: The GI50 was 6.76.

Question: And the GI50 ([1]; cell line HCC1954)?
Answer: Its GI50 is 6.56.

Question: And the GI50 ([1]; cell line HCC2185)?
Answer: The GI50 was 6.60.

Question: What about the GI50 ([1]; cell line HCC3153) of the same molecule?
Answer: The GI50 was 6.72.

Question: And the GI50 ([1]; cell line LY2)?
Answer: The GI50 was 5.18.

Question: And the GI50 ([1]; cell line MCF7)?
Answer: The GI50 was 6.33.

Question: What about the GI50 ([1]; cell line MDAMB134V) of the same molecule?
Answer: Its GI50 is 6.38.

Question: What about the GI50 ([1]; cell line MDAMB157) of the same molecule?
Answer: The GI50 was 6.96.

Question: And the GI50 ([1]; cell line MDAMB175V)?
Answer: The GI50 was 6.75.

Question: And the GI50 ([1]; cell line MDAMB231)?
Answer: The GI50 was 4.66.

Question: What about the GI50 ([1]; cell line MDAMB361) of the same molecule?
Answer: Its GI50 is 5.78.

Question: And the GI50 ([1]; cell line MDAMB415)?
Answer: Its GI50 is 6.78.

Question: And the GI50 ([1]; cell line MDAMB436)?
Answer: Its GI50 is 6.06.

Question: And the GI50 ([1]; cell line MDAMB453)?
Answer: The GI50 was 6.28.

Question: What about the GI50 ([1]; cell line MDAMB468) of the same molecule?
Answer: Its GI50 is 6.17.

Question: What about the GI50 ([1]; cell line SKBR3) of the same molecule?
Answer: The GI50 was 5.30.

Question: What about the GI50 ([1]; cell line SUM52PE) of the same molecule?
Answer: The GI50 was 6.79.

Question: And the GI50 ([1]; cell line SUM149PT)?
Answer: Its GI50 is 6.53.

Question: What about the GI50 ([1]; cell line SUM159PT) of the same molecule?
Answer: Its GI50 is 6.60.

Question: And the GI50 ([1]; cell line SUM185PE)?
Answer: The GI50 was 6.68.

Question: What about the GI50 ([1]; cell line SUM225CWN) of the same molecule?
Answer: The GI50 was 5.45.

Question: And the GI50 ([1]; cell line SUM1315MO)?
Answer: Its GI50 is 5.69.

Question: What about the GI50 ([1]; cell line T47D) of the same molecule?
Answer: The GI50 was 6.96.

Question: And the GI50 ([1]; cell line UACC812)?
Answer: Its GI50 is 6.78.

Question: And the GI50 ([1]; cell line UACC893)?
Answer: The GI50 was 6.60.

Question: And the GI50 ([1]; cell line ZR751)?
Answer: The GI50 was 6.48.

Question: What about the “association of response with ERBB2 amplification” value [2] of the same molecule?
Answer: Its value is “negatively associated with ERBB2 amplification”.

Question: What about the Subtype specificity ([2]; Table 6, most sensitive subtype, FDR p<0.20) of the same molecule?
Answer: The Subtype specificity was “not ERBB2AMP”.

Reference: patent US10770169B2, “Method of providing a treatment to a subject based on a dynamic pathway map” (THE REGENTS OF THE UNIVERSITY OF CALIFORNIA, priority 2010, dated 2020)
